Where a SMILES comes first, the peptide text is derived from it. The star is where a group is joined. Cbz = O=C(OCc1ccccc1)*; CH2F = FC*
Assays:
[1] = test system: adult human lung fibroblasts (CCD-8Lu) overlayered with NCI-H441 cells; assay: Caspase 3/7 activity (Caspase-Glo 3/7) in human lung co-culture under cyclic stretch; format: cell-based; conditions: cyclic stretch 6 hours; JB1a 1 μg/ml; ZVAD-fmk 10 or 20 μM
Experimental: (§1) Adult human lung fibroblasts (CCD-8Lu) were seeded onto collagen I coated BioFlex 6 well plates at 0.5×10^6/well. The following day, NCI-H441 were seeded on top of the fibroblasts at the same density. […] Cells were starved with media containing 0.1% FCS. The plates were subjected to stretching at 0-5%, 0-10% or 2-10% sinusoidal stretch at 1 Hz for 6 hours. Control plates on plastic or bioflex plates without stretch were also included. PPE was added at 0.06 or 0.3 U/ml alone or in combination with JB1a (1 μg/ml) and ZVAD-fmk at 10 or 20 μM. At the end of the 6 hour period, the media was aspirated and caspase 3 activity assayed using Caspase-Glo™ 3/7 (Promega) according to the manufacturers' instructions. Separate experiments were performed at up to 6 hours of stretching where the cells were fixed with 4% paraformaldehyde and stained using Alexa-fluor phalloidin and TO-PRO3 (Molecular Probes). Images were acquired using Zeiss Axioskope using a x63 water achroplan objective and analysed using LSM 5 Image software.

[2] = test system: adult human lung fibroblasts (CCD-8Lu) overlayered with NCI-H441 cells; assay: F-actin aggregates (phalloidin staining) in human lung co-culture under stretch; format: cell-based; conditions: stretch up to 6 hours; JB1a 1 μg/ml; ZVAD-fmk
Experimental: as §1

[3] = biological target: human beta 1 integrin (Integrin beta-1 precursor, Fibronectin receptor subunit beta, Integrin VLA-4 subunit beta, CD29 antigen) (human) (UniProt P05556); assay: cell-based or functional assay
Chain of UniProt P05556 (P05556 21-798 T112H/S215T): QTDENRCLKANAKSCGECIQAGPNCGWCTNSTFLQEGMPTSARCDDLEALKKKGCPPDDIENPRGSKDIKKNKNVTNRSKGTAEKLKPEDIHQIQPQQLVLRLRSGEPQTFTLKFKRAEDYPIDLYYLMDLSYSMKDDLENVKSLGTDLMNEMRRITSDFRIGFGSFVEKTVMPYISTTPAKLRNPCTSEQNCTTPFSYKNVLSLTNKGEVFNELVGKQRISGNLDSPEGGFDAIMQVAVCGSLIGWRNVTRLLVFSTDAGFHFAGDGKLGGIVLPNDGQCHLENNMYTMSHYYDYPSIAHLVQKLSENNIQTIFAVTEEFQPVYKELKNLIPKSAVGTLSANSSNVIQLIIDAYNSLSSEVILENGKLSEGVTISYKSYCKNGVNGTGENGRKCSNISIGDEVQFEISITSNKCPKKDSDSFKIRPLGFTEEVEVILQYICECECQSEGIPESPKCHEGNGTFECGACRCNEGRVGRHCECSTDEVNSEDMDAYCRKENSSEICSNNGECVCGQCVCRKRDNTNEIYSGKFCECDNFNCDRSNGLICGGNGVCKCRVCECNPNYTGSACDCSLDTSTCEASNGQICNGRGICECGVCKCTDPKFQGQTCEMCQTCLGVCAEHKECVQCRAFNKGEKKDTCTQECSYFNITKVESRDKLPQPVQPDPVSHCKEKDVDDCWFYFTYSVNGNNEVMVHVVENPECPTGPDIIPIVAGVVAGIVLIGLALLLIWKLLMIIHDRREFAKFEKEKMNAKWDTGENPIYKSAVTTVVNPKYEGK

Row | IL-1beta-stimulated IL-8 secretion by primary human chondrocytes, reduction [3] | Compound | elastase-induced caspase 3 and 7 activation [1] | elastase-induced increase in F-actin aggregates [2]
1 |  | COC(=O)C[C@H](NC(=O)[C@H](C)NC(=O)[C@@H](NC(=O)OCc1ccccc1)C(C)C)C(=O)CF [ZVAD-fmk] (Cbz-Val-Ala-Asp(OMe)-CH2F) | inhibited elastase-induced caspase activation | inhibited
2 | 50% | JB1a monoclonal antibody (JB1A mouse anti-CD29 (Integrin beta-1 subunit) IgG monoclonal antibody, unconjugated, clone JB1a, Millipore, Catalogue number MAB-1965) |  | 

— patent US8741579B2, “Compounds and methods for the modulation of beta-1 integrin function to mediate tissue repair” (priority 2007, dated 2014)
